The text below walks through data of patent US20220017516A1, “LOX INHIBITORS” (THE INSTITUTE OF CANCER RESEARCH: ROYAL CANCER HOSPITAL, priority 2018, published 2022).

A value given as a limit tells only on which side of the number the result lay.

In assay [1] the target is T1, monoamine oxidase A (MAO-A) (Homo sapiens, UniProt P21397).
T1 construct: purchased Promega V1452
T1 sequence (P21397 1-527): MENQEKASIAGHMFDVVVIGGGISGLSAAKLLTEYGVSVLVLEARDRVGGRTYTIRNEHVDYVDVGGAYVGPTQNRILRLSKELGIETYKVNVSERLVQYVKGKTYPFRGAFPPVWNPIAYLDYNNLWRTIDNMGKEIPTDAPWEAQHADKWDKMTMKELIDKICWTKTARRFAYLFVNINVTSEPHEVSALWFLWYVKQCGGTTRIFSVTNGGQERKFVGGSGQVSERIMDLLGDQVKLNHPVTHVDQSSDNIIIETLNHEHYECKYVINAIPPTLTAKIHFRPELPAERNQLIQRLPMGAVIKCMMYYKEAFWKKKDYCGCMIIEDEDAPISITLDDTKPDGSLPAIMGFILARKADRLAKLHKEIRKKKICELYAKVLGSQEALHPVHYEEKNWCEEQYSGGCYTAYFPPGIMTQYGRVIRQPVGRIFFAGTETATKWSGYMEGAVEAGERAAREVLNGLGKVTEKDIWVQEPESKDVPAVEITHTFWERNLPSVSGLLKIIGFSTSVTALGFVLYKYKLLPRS
As to the kind of experiment: Amine oxidase activity assay (MAO-Glo), MAO-A. The class given is biochemical. Here is the method: The Promega MAO-Glo assay kit (V1402) was used to assess monoamine oxidase A (MAO-A) and monoamine oxidase B (MAO-B) activity. MAO substrate was prepared at 80 μM with the specific MAO-A/B reaction buffer. Overall, 0.5 μl test compound was added to 25 μl MAO substrate at 100, 30, 10, 3, 1, 0.3, 0.1, 0.03, 0.01 and 0.003 μM (final concentration) in a 96-well white, flat bottom plate. Overall, 25 μl of 1:520 dilution of MAO-A enzyme (Promega, V1452) or 25 μl of 1:52 dilution of MAO-B enzyme (Sigma, M7441) in specific MAO-A/B reaction buffer was added to each well (enzyme prepared at 2×final concentration) and plates were incubated for 1 h at room temperature. Finally, 50 μl per well luciferin detection reagent was added and plates were incubated for 20 min at room temperature, protected from light. Luminescence was measured with an integration time of 500 ms per well using a SpectaMax M5 plate reader and resulting IC50 values were calculated using GraphPad Prism software.
(§1) In another setting, the DAO and MAO assays were performed in 384-well plates (Greiner) and test compound was added using a Labcyte Echo™ Acoustic Handler for the same final concentrations as in the 96-well setting. Luminescence was measured with BMG LABTECH PHERAstar FS plate reader.

Assay [2] has as its target T2, diamine oxidase (DAO) (Sus scrofa, UniProt Q9TRC7).
T2 construct: purchased Sigma
T2 sequence (Q9TRC7 25-755): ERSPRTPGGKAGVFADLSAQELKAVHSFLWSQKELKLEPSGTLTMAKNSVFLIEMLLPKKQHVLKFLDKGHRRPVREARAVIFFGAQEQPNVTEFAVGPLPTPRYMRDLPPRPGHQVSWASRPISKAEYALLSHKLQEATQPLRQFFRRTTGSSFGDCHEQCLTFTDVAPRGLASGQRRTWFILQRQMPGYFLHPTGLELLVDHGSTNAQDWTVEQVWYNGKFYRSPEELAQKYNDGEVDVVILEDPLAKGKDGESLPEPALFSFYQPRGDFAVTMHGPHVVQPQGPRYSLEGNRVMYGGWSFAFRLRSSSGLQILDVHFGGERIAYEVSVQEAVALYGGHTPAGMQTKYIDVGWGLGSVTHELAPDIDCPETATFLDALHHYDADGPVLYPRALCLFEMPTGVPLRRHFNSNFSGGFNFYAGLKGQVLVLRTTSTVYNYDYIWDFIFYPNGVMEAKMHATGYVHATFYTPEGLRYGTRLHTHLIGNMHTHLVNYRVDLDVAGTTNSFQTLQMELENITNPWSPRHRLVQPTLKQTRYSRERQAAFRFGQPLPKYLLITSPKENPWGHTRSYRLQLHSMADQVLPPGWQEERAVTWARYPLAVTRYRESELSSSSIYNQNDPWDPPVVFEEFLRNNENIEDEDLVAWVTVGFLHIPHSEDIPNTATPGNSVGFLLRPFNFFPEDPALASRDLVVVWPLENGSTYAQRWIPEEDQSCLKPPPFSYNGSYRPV
As to the kind of experiment: Diamine oxidase catalytic activity assay (ROS Glo). Format: biochemical. Here is the method: The diamine oxidase (DAO) catalytic activity was determined using the Promega ROS Glo assay kit (G8821); DAO was purchased from Sigma and cadaverine dihydrochloride was used as the substrate at a concentration of 97.8 mM. The concentrations of the chemical inhibitors were the same as in the MAO assays. Luminescence was measured with an integration time of 500 ms/well using a SpectaMax M5 plate reader and resulting IC50 values were calculated using GraphPad Prism software.
as §1

Assay [3] concerns the target T3, LOX (Sus scrofa, UniProt P45845).
T3 construct: LOX was extracted from pig skin by previously described methods; from tissue; host or cells: pig skin
T3 sequence (P45845 1-249): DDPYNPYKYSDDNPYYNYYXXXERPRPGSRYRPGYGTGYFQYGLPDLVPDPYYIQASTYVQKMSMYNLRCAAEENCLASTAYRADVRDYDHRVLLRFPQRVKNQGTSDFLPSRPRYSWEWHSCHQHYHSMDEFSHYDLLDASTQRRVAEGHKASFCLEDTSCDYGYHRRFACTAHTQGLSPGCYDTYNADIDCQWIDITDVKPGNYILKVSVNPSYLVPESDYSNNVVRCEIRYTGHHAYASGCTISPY
As to the kind of experiment: LOX isoform activity assay (ROS Glo), LOX. The class given is biochemical, pig. Conditions: 1 h incubation with enzyme. A digest of the protocol: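 Pig-skin LOX or recombinant LOXL3 preincubated 1 h with compound (100-0.003 μM final) in pH 9 CHES buffer containing 1 M urea. Then 19.56 mM cadaverine plus 25 μM H2O2 added, 1.5 h (LOX) or 1 h (LOXL3) at room temperature. ROS-Glo luminescence; IC50 from curve fit.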

As to `CCOc1ccc(N2C[C@H]3CN(C(=O)CS(=O)(=O)CCN)C[C@@H]2C(C)(C)C3)cc1` [Example 7, 2-((2-aminoethyl)sulfonyl)-1-((1S,5S)-6-(4-ethoxyphenyl)-9,9-dimethyl-3,6-diazabicyclo[3.2.2]nonan-3-yl)ethan-1-one], the IC50 in assay [1] and in assay [2] was above 100 µM each time.
Take `CCOc1ccc(N2C[C@H]3CN(CCS(=O)(=O)CCN)C[C@@H]2C(C)(C)C3)cc1` [Example 1, 2-((2-((1R,5S)-6-(4-ethoxyphenyl)-9,9-dimethyl-3,6-diazabicyclo[3.2.2]nonan-3-yl)ethyl)sulfonyl)ethan-1-amine]: the IC50 in assay [1] and in assay [2] was above 100 µM throughout.
As for `NCCS(=O)(=O)CC(=O)N1CCN(c2ncccn2)CC1` [Example 12, 2-((2-Aminoethyl)-sulfonyl)-1-(4-(pyrimidin-2-yl)-piperazin-1-yl)ethan-1-one], the IC50 in assay [1] and in assay [2] was above 100 µM throughout.
On to `CCOC(=O)CCC(C(=O)N1C[C@@H]2C[C@H]1CN2c1ccc(OCC)cc1)S(=O)(=O)CCN` (stereo partly drawn) [Example 41, ethyl 4-((2-aminoethyl)sulfonyl)-5-((1S,4S)-5-(4-ethoxyphenyl)-2,5-diazabicyclo[2.2.1]heptan-2-yl)-5-oxopentanoate], for which the IC50 in assay [3] is 41 µM; in assay [1] it was above 100 µM; in assay [2], above 100 µM.
As for `CCOc1ccc(N2C[C@H]3CN(c4ccc(S(=O)(=O)CCN)cc4)C[C@@H]2C(C)(C)C3)cc1` [Example 33, 2-((4-((1R,5S)-6-(4-ethoxyphenyl)-9,9-dimethyl-3,6-diazabicyclo [3.2.2]nonan-3-yl)phenyl)sulfonyl)ethan-1-amine], the IC50 in assay [1] was above 100 µM.
`CCOc1ccc(N2CC3CN(CCS(=O)(=O)CCN)CC3C2)cc1` (stereo not shown) [Example 4, 2-((2-(5-(4-ethoxyphenyl)hexahydropyrolo [3,4-c]pyrrol-2(1H)-yl)ethyl)sulfonyl)ethan-1-amine] came in with an IC50 in assay [1] above 100 µM.
With `CCOc1ccc(N2C[C@H]3CN(C(=O)NCCS(=O)(=O)CCN)C[C@@H]2C(C)(C)C3)cc1` [Example 38, (1S,5S)—N-(2-((2-aminoethyl)sulfonyl)ethyl)-6-(4-ethoxyphenyl)-9,9-dimethyl-3,6-diazabicyclo[3.2.2]nonane-3-carboxamide], the IC50 in assay [3] is 8.8 µM; in assay [2] it was above 100 µM.
Turning to `CCOc1ccc(N2C[C@@H]3C[C@H]2CN3C(=O)CS(=O)(=O)CCN)cc1` [Example 8, 2-((2-aminoethyl)-sulfonyl)-1-((1S,4S)-5-(4-ethoxyphenyl)-2,5-diazabicyclo-[2.2.1]heptan-2-yl)-ethan-1-one], the IC50 in assay [1] and in assay [2] was above 100 µM each time.
For `NCCS(=O)(=O)CC(=O)N1CCN(c2ccccc2)CC1` [Example 13, 2-((2-Aminoethyl)-sulfonyl)-1-(4-phenylpiperazin-1-yl)ethan-1-one], the figures for the IC50 in assay [3], in assay [1] and in assay [2] were 25 µM, above 100 µM and above 100 µM, respectively.
In the case of `CCOc1ccc(N2C[C@@H]3C[C@H]2CN3CCS(=O)(=O)CCN)cc1` [Example 2, 2-((2-((1S,4S)-5-(4-ethoxyphenyl)-2,5-diazabicyclo[2.2.1]heptan-2-yl)ethyl)sulfonyl)-ethan-1-amine], the IC50 in assay [1] and in assay [2] was above 100 µM throughout.
In the case of `Cc1ccc(S(=O)(=O)N2C[C@H]3CN(C(=O)CS(=O)(=O)CCN)C[C@H]3C2)cc1` [Example 11, 2-((2-aminoethyl)-sulfonyl)-1-(cis-5-tosylhexahydro-pyrrolo[3,4-c]pyrrol-2(1H)-yl)ethan-1-one], the IC50 in assay [1] and in assay [2] was above 100 µM throughout.
Regarding `CCOc1ccc(N2C[C@@H]3C[C@H]2CN3C(=O)C2(S(=O)(=O)CCN)CC2)cc1` [Example 42, (1-((2-Aminoethyl)sulfonyl)cyclopropyl)((1S,4S)-5-(4-ethoxyphenyl)-2,5-diazabicyclo[2.2.1]heptan-2-yl)methanone], the IC50 in assay [3], in assay [1] and in assay [2] was above 100 µM throughout.

Broadly, the IC50 is the concentration that inhibits the measured activity by half. The low end stands for greater potency in that assay, the high end for weaker potency in that assay.
